This note sets out measurements from US10683267B1, “Antidiabetic compounds” (King Abdulaziz University, priority 2019, dated 2020).

“Also recorded” adds a separate entry of the source. Where two headings read alike, the source gives them in different places. Bounds are passed on as bounds.

The target of assay [1] is T1, DPP-IV enzyme (Homo sapiens, UniProt P27487).
T1 construct: purchased Biovision (Milpitas, Calif., USA)
The experiment in a line: In vitro DPP-IV inhibition assay (Biovision kit, fluorescence). The settings on record: for DPP-4 enzyme inhibition activity, in words: SAR discussion; for % Inhibition @ 100 nM / inhibition at 0.1 µM: compound at 100 nM; for % Inhibition (values marked *: inhibition at 1000 nM): compound at 1000 nM. It counts as biochemical. How it is done:
DPP-IV inhibition assay was conducted using a kit purchased from Biovision (Milpitas, Calif., USA). Briefly, DPP-IV enzyme was diluted with Tris buffer and pipetted 50 μl into glass mini-cells. […] Finally a volume of 25 μl of DPP-IV substrate was added into each tube. The fluorescence generated from hydrolysis of the substrate was read at Ex/Em=360/460 nm using Modulus® single tube multimode reader (Promega, USA). Baseline fluorescence was recorded before incubation (R1) and 20 min after incubation (R2).
The standard DPP-IV inhibitor drug sitagliptin employed as positive control. […] Sigmoidal concentration-response curves for DPP-IV % inhibition versus log concentration were plotted using Graphpad prism software, version 5.00 (GraphPad Software, Inc. La Jolla, Calif., USA).

Assay [2] concerns diabetic mice. Briefly: Oral glucose tolerance test (OGTT) after single dose in diabetic mice. It counts as in vivo. The note with it: Table 6; relative potency, single dose; B.G. = blood glucose. The protocol:
(§1) The Biochemical and Research Ethical Committee of King Abulaziz University (Jeddah, Saudi Arabia), in accordance with the NIH guidelines, approved all procedures, and the animals received human care during the experimental period. Experiments were carried out using adult male Swiss albino mice (SWR), of 8-9 weeks age and 30-35 g weight. Animals were purchased from the animal house of the King Fahed Medical Research center (KFMRC), Jeddah, Saudi Arabia. Mice were kept at a constant temperature of 24-25° C. and were subjected to a controlled 12 h light-dark cycle; they had free access to water and pelleted diet ad libitum.
(§2) Nicotinamide (210 mg/kg b.w.), dissolved in saline, was injected intraperitoneally 15 min before the intraperitoneal injection of Streptozotocin (STZ) (Sigma, 180 mg/kg b.w.), which was freshly prepared in citrate buffer (pH 4.5). Control animals received both vehicles. During the experimental period, animals' food intake and body weight gain were monitored once a week.
Oral glucose tolerance tests were performed in 14 h overnight fasted diabetic mice that were pretreated with a single oral dose of the tested compounds. […] The drugs were suspended in carboxymethyl cellulose (CMC)-Na (1% in distilled water) and the dosing volume was adjusted at 10 mL/kg body weight of the mouse. Then an oral glucose load was administered (2 g/kg) 2 h after drug treatment. Blood glucose levels were determined using the Accu-check Go® (Roche Diagnostics, Michigan, USA). Samples were collected just before drug administration (fasting blood glucose), then at 2 h after drug treatment (immediately before glucose loading). Then blood sample collection was continued at 20, 40, 60 and 120 min intervals after glucose loading.
Animals were distributed between three categories of groups. Each group is composed of six animals (n=6) […] as follows:
Category 1: One group of animals were 14 h overnight-fasted normoglycemic mice and vehicle-treated (1% CMC-Na) at a dose of 10 ml/kg.
Category 2: Another group of animals was overnight fasted diabetic mice received the vehicle (1% CMC-Na) at a dosing volume of 10 ml/kg and served as a negative control.
Category 4: Animals of these groups were overnight fasted diabetic mice received the tested compounds at a dose of 50 mg/kg in 1% CMC (volume of 10 ml/kg).

Assay [3] has as its system diabetic mice. Briefly: Oral glucose tolerance test (OGTT) after multiple doses (6 days) in diabetic mice. It counts as in vivo. The settings on record: Table 6; relative potency, 6 days; B.G. = blood glucose. The protocol: as §1, §2
(§3) On the same groups that received the single dose treatment, the tested compounds were given daily by oral gavage for six consecutive days. On day 6, the overnight fasted diabetic mice were pretreated with the 6th oral dose of the tested compounds. Two hours later, an oral glucose was loaded (2 g/kg/10 ml b.w.). Blood glucose levels were determined using the Accu-check Go®. Samples were collected just before drug administration (Fasting Blood glucose), then 2 h after drug treatment and before glucose administration. Samples collection was continued at 20, 40, 60 and 120 min intervals after glucose loading.

Assay [4] deals with diabetic mice. Briefly: Fasting blood glucose of diabetic mice treated daily for 6 consecutive days. It counts as in vivo. The settings on record: 50 mg/kg oral daily. How it is done: as §1, §2, §3
The oral glucose tolerance test (OGTT) was performed over six days on diabetic mice. The glucose level was monitored daily (Table 3). The results were analyzed for activities after a single dose (Table 4) and after the 6th dose of the drug (Table 5).

[5] abbreviates: Table 2, head prints no unit, nM per Table 6, read-out: IC50.
[6] abbreviates: read-out: enzymatic inhibition value / inhibitory activity (IC50).

For orientation: inhibition means how much of the control response was suppressed.

T1 sequence (P27487 whole entry, species assumed): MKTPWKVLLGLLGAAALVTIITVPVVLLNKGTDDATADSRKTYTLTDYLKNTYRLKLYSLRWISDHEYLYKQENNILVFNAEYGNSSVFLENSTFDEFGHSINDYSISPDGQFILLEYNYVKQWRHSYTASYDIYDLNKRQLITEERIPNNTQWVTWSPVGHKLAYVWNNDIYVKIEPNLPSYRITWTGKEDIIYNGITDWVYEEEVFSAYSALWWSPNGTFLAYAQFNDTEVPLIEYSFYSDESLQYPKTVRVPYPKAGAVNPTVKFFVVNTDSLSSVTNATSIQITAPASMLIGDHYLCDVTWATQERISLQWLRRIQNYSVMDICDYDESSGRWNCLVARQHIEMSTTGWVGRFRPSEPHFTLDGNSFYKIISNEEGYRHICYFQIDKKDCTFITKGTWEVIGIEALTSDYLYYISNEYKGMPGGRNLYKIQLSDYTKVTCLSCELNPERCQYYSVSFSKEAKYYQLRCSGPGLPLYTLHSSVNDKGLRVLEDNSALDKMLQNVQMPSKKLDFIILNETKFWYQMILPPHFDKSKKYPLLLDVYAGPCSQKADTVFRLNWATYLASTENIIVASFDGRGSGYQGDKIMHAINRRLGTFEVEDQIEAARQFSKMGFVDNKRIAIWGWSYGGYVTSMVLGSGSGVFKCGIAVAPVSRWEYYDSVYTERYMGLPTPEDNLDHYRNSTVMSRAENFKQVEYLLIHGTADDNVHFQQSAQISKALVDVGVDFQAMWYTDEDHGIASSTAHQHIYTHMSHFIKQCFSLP

For `O=C(CNC12CC3CC(CC(C3)C1)C2)Nc1cc(Cl)ccn1` [Compound 117], in assay [1], the “DPP-4 enzyme inhibition activity, in words” value is listed as “high DPP-4 inhibition; also recorded: best functionality in enzyme inhibition activity” and the “% Inhibition @ 100 nM” value came to 83.14%. Moreover, the IC50 in assay [1] (setting [5]) stood at 5.42 nM.
Turning to `N#Cc1ccccc1NC(=O)CNC12CC3CC(CC(O)(C3)C1)C2` [Compound 19], in assay [1], the “DPP-4 enzyme inhibition activity, in words” value was “exception to nitrile performance”. Further, the IC50 in assay [1] (setting [5]) is 267 nM; in assay [1] (Table 6, read-out: IC50), more than 100 nM. The “% Inhibition (values marked *: inhibition at 1000 nM)” value in assay [1] is listed as 99.06* %. The “R.P. to Vildagliptin (Single Dose)” value in assay [2] is 0.23. In addition, the “R.P. to Vildagliptin (6 Days)” value in assay [3] came out at 0.87.
Regarding `O=C(CNC12CC3CC(CC(O)(C3)C1)C2)Nc1ccc(O)cc1` [Compound 60], in assay [1], the “DPP-4 enzyme inhibition activity, in words” value was “very weak activity” and the “% Inhibition (values marked *: inhibition at 1000 nM)” value was 20.11* %. In addition, the “R.P. to Vildagliptin (Single Dose)” value in assay [2] stood at 0.67. Moreover, the “R.P. to Vildagliptin (6 Days)” value in assay [3] was determined as 0.67.
As to `O=C(CNC12CC3CC(CC(O)(C3)C1)C2)Nc1ccc(Cl)cc1` [Compound 43], the “DPP-4 enzyme inhibition activity, in words” value in assay [1] was “weak inhibitors at high concentration”. Moreover, the IC50 in assay [1] (setting [5]) was 102 nM; in assay [1] (Table 6, read-out: IC50) it was more than 100 nM. In addition, the “% Inhibition @ 100 nM” value in assay [1] was 51.64%. Also, in assay [2], the “R.P. to Vildagliptin (Single Dose)” value is given as 0.26. The “R.P. to Vildagliptin (6 Days)” value in assay [3] worked out at 1.39.
On to `O=C(CNC12CC3CC(CC(O)(C3)C1)C2)Nc1cccc(O)c1` [Compound 17], for which, in assay [1], the “DPP-4 enzyme inhibition activity, in words” value is on record as “very weak activity” and the “% Inhibition @ 100 nM” value came to 44.44%. For the same molecule, the IC50 in assay [1] (setting [5]) amounted to 212 nM. The IC50 in assay [1] (Table 6, read-out: IC50) was more than 100 nM. Also, the “R.P. to Vildagliptin (Single Dose)” value in assay [2] is 0.26. In addition, the “R.P. to Vildagliptin (6 Days)” value in assay [3] came to 1.42.
Regarding `O=C(CNC12CC3CC(CC(O)(C3)C1)C2)Nc1ccccc1F` [Compound 27], in assay [1], the “DPP-4 enzyme inhibition activity, in words” value is on record as “generally weak” and the “% Inhibition (values marked *: inhibition at 1000 nM)” value is 67.04* %.
For the molecule `COc1ccccc1NC(=O)CNC12CC3CC(CC(O)(C3)C1)C2` [Compound 5], in assay [1], the “DPP-4 enzyme inhibition activity, in words” value is recorded as “weakened the enzyme inhibition activities”. Further, the IC50 in assay [1] (setting [5]) came out at 94.1 nM; in assay [1] (Table 6, read-out: IC50) it was 94.1 nM. Besides, the “% Inhibition (values marked *: inhibition at 1000 nM)” value in assay [1] is on record as 93.48* %. In addition, the “R.P. to Vildagliptin (Single Dose)” value in assay [2] came out at 0.66. Moreover, the “R.P. to Vildagliptin (6 Days)” value in assay [3] was found to be 0.26.
As to `Cc1cccc(NC(=O)CNC23CC4CC(CC(O)(C4)C2)C3)c1` [Compound 30], in assay [1], the “DPP-4 enzyme inhibition activity, in words” value is “much weaker enzyme inhibition activities” and the “% Inhibition (values marked *: inhibition at 1000 nM)” value is on record as 70.92* %.
With `Cc1cccc(C)c1NC(=O)CNC12CC3CC(CC(C3)C1)C2` [Compound 120], in assay [1], the “DPP-4 enzyme inhibition activity, in words” value was “much weaker enzyme inhibition activities” and the “% Inhibition (values marked *: inhibition at 1000 nM)” value is listed as 62.84* %.
On to `O=C(CNC12CC3CC(CC(O)(C3)C1)C2)NCc1ccc(F)cc1` [Compound 54], for which the IC50 worked out at 87.1 nM in assay [1] (setting [5]) and 87.1 nM in assay [1] (Table 6, read-out: IC50). Also, the “% Inhibition @ 100 nM” value in assay [1] is 57.12%. In addition, the “R.P. to Vildagliptin (Single Dose)” value in assay [2] is reported as “Increased B.G”. For the same molecule, the “R.P. to Vildagliptin (6 Days)” value in assay [3] is reported as “Increased B.G”.
Consider `Cc1ccc(NC(=O)CNC23CC4CC(CC(O)(C4)C2)C3)cc1` [Compound 3], for which, in assay [1], the “DPP-4 enzyme inhibition activity, in words” value is on record as “much weaker enzyme inhibition activities” and the “% Inhibition @ 100 nM” value was determined as 28.38%.
Consider `O=C(CNC12CC3CC(CC(O)(C3)C1)C2)NCCc1ccccc1` [Compound 59], for which the “% Inhibition (values marked *: inhibition at 1000 nM)” value in assay [1] was 67.04* %. Besides, the “R.P. to Vildagliptin (Single Dose)” value in assay [2] came out at 0.52. Also, the “R.P. to Vildagliptin (6 Days)” value in assay [3] stood at 0.83.
In the case of `Cc1ccccc1NC(=O)CNC12CC3CC(CC(O)(C3)C1)C2` [Compound 2], the IC50 in assay [1] (setting [5]) amounted to 10.1 nM; in assay [1] (Table 6, read-out: IC50), 10.1 nM; in assay [1] (setting [6]), 10.3 nM. The “% Inhibition @ 100 nM” value in assay [1] is recorded as 86.82%. The “R.P. to Vildagliptin (Single Dose)” value in assay [2] is reported as 0.42. Further, the “R.P. to Vildagliptin (6 Days)” value in assay [3] amounted to 1.2.
Regarding `N#C[C@@H]1CCCN1C(=O)CNC12CC3CC(CC(O)(C3)C1)C2` [Vildagliptin, reference compound], in assay [4] (Day 1), the “Fasting blood glucose level, Day 1” value is 205.20 ± mg/dL. Moreover, the “Fasting blood glucose level, Day 2” value in assay [4] (Day 2) is on record as 119.40 ± mg/dL. The “Fasting blood glucose level, Day 3” value in assay [4] (Day 3) is recorded as 169.20 ± mg/dL. The “Fasting blood glucose level, Day 4” value in assay [4] (Day 4) amounted to 197.80 mg/dL. Further, in assay [4] (Day 5), the “Fasting blood glucose level, Day 5” value came to 244.60 mg/dL. Also, the “Fasting blood glucose level, Day 6” value in assay [4] (Day 6) was determined as 165.00 mg/dL. The “R.P. to Vildagliptin (6 Days)” value in assay [3] was determined as 1.
Turning to `O=C(CNC12CC3CC(CC(O)(C3)C1)C2)NCc1ccccc1` [Compound 53], the IC50 in assay [1] (setting [5]) is 7.41 nM. Also, in assay [1], 0.1 µM produced 86.8% inhibition.
Regarding `O=C(CNC12CC3CC(CC(O)(C3)C1)C2)Nc1cccc(F)c1` [Compound 31], in assay [1], the “DPP-4 enzyme inhibition activity, in words” value was “generally weak” and the “% Inhibition @ 100 nM” value is reported as 56.23%. In addition, the IC50 in assay [1] (setting [5]) amounted to 62.3 nM. Further, in assay [1] (Table 6, read-out: IC50), the IC50 stood at 62.3 nM. In addition, the “R.P. to Vildagliptin (Single Dose)” value in assay [2] amounted to 0.37. Moreover, the “R.P. to Vildagliptin (6 Days)” value in assay [3] is listed as 0.85.
`O=C(CNC12CC3CC(CC(O)(C3)C1)C2)Nc1ccccc1C(F)(F)F` [Compound 14]: in assay [1], the “DPP-4 enzyme inhibition activity, in words” value was “generally weak” and the “% Inhibition @ 100 nM” value was 84.81%. For the same molecule, in assay [1] (setting [5]), the IC50 worked out at 41.3 nM. In assay [1] (Table 6, read-out: IC50), the IC50 amounted to 41.3 nM. Also, the “R.P. to Vildagliptin (Single Dose)” value in assay [2] worked out at 0.12. Moreover, in assay [3], the “R.P. to Vildagliptin (6 Days)” value is given as “Increased B.G”.
For the molecule `N#Cc1cccc(NC(=O)CNC23CC4CC(CC(O)(C4)C2)C3)c1` [Compound 26, N-(3-cyanophenyl)-2-[(3-hydroxyadamantan-1-yl)amino]acetamide], the “DPP-4 enzyme inhibition activity, in words” value is “high affinity towards the enzyme” in assay [1]; “high level of potency both in vitro and in vivo” in assay [1] (listed as GLP-26). Further, the IC50 is 0.58 nM in assay [1] (setting [5]); 0.58 nM in assay [1] (Table 6, read-out: IC50); less than 1 nM in assay [1] (setting [6]). The molecule also gave an inhibition at 0.1 µM in assay [1] of 83.1%. In addition, in assay [2], the “R.P. to Vildagliptin (Single Dose)” value is reported as 0.32. Further, the “R.P. to Vildagliptin (6 Days)” value in assay [3] turned out to be 1.3.
